Test results taken from patent US8562949B2, “Radiolabeled dihydrotetrabenazine derivatives and their use as imaging agents” (The Trustees of the University of Pennsylvania, priority 2006, dated 2013).

Test: Biodistribution in normal rats
Format: in vivo
Conditions: IV
Experimental: While under isoflurane anesthesia, 0.15 mL of a 0.1% bovine serum albumin solution containing [^18F]tracers (10-20 μCi) were injected directly into the tail vein of ICR mice (22-25 g, male) The mice (n=3 for each time point) were sacrificed by cervical dislocation at indicated time points post injection. The organs of interest were removed and weighed, and the radioactivity was counted with an automatic gamma counter. The percentage dose per organ was calculated by a comparison of the tissue counts to suitably diluted aliquots of the injected material. Total activities of blood were calculated under the assumption that they were 7% of the total body weight. The % dose/g of samples was calculated by comparing the sample counts with the count of the diluted initial dose.
The ability of (+)-6b to target the pancreas was shown in normal rats. Using the methods described above under Example 6, the biodistribution of (+)-6b after IV injection in twelve normal rats was measured. For the organs studied, the pancreas had the highest % dose/gram within 30 minutes after injection. Also shown are data indicating distribution in the striatum, which is another area rich in VMAT-2 receptors.

With `COc1cc2c(cc1OCCC[18F])CCN1C[C@@H](CC(C)C)[C@H](O)C[C@H]21` [[^18F]-(+)-6b] the “Biodistribution Blood” value (2 min) was 0.26 ± 0.03 % dose/g, the “Biodistribution Brain” value (2 min) was 0.71 ± 0.05 % dose/g and the “Biodistribution Cerebellum” value (2 min) was 0.63 ± 0.03 % dose/g. The “Biodistribution Cortex” value (2 min) was 0.65 ± 0.02 % dose/g, the “Biodistribution Heart” value (2 min) was 0.71 ± 0.07 % dose/g and the “Biodistribution Hippocampus” value (2 min) was 0.68 ± 0.07 % dose/g. The “Biodistribution Kidney” value (2 min) was 2.10 ± 0.17 % dose/g, the “Biodistribution Liver” value (2 min) was 3.53 ± 0.56 % dose/g and the “Biodistribution Lung” value (2 min) was 0.94 ± 0.04 % dose/g. The “Biodistribution Muscle” value (2 min) was 0.14 ± 0.03 % dose/g, the “Biodistribution Pancreas” value (2 min) was 2.51 ± 0.22 % dose/g and the “Biodistribution Skin” value (2 min) was 0.23 ± 0.05 % dose/g. The “Biodistribution Spleen” value (2 min) was 1.46 ± 0.15 % dose/g, the “Biodistribution Striatum” value (2 min) was 1.52 ± 0.20 % dose/g and the “Biodistribution Blood” value (30 min) was 0.23 ± 0.06 % dose/g. The “Biodistribution Brain” value (30 min) was 0.62 ± 0.08 % dose/g, the “Biodistribution Cerebellum” value (30 min) was 0.40 ± 0.04 % dose/g and the “Biodistribution Cortex” value (30 min) was 0.44 ± 0.06 % dose/g. For the same compound, the “Biodistribution Heart” value (30 min) was 0.41 ± 0.03 % dose/g, the “Biodistribution Hippocampus” value (30 min) was 0.61 ± 0.12 % dose/g and the “Biodistribution Kidney” value (30 min) was 1.06 ± 0.06 % dose/g. The “Biodistribution Liver” value (30 min) was 2.82 ± 0.24 % dose/g, the “Biodistribution Lung” value (30 min) was 0.69 ± 0.03 % dose/g and the “Biodistribution Muscle” value (30 min) was 0.17 ± 0.02 % dose/g. For the same compound, the “Biodistribution Pancreas” value (30 min) was 5.50 ± 0.97 % dose/g, the “Biodistribution Skin” value (30 min) was 0.28 ± 0.01 % dose/g and the “Biodistribution Spleen” value (30 min) was 1.03 ± 0.18 % dose/g. For the same compound, the “Biodistribution Striatum” value (30 min) was 2.25 ± 0.48 % dose/g, the “Biodistribution Blood” value (60 min) was 0.18 ± 0.02 % dose/g and the “Biodistribution Brain” value (60 min) was 0.42 ± 0.04 % dose/g. For the same compound, the “Biodistribution Cerebellum” value (60 min) was 0.28 ± 0.04 % dose/g, the “Biodistribution Cortex” value (60 min) was 0.27 ± 0.07 % dose/g and the “Biodistribution Heart” value (60 min) was 0.30 ± 0.10 % dose/g. For the same compound, the “Biodistribution Hippocampus” value (60 min) was 0.36 ± 0.08 % dose/g, the “Biodistribution Kidney” value (60 min) was 0.84 ± 0.09 % dose/g and the “Biodistribution Liver” value (60 min) was 2.47 ± 0.30 % dose/g. The “Biodistribution Lung” value (60 min) was 0.54 ± 0.14 % dose/g, the “Biodistribution Muscle” value (60 min) was 0.13 ± 0.01 % dose/g and the “Biodistribution Pancreas” value (60 min) was 4.98 ± 0.24 % dose/g. For the same compound, the “Biodistribution Skin” value (60 min) was 0.23 ± 0.04 % dose/g, the “Biodistribution Spleen” value (60 min) was 0.83 ± 0.18 % dose/g and the “Biodistribution Striatum” value (60 min) was 1.85 ± 0.26 % dose/g. For the same compound, the “Biodistribution Blood” value (120 min) was 0.12 ± 0.03 % dose/g, the “Biodistribution Brain” value (120 min) was 0.35 ± 0.02 % dose/g and the “Biodistribution Cerebellum” value (120 min) was 0.20 ± 0.01 % dose/g. For the same compound, the “Biodistribution Cortex” value (120 min) was 0.20 ± 0.06 % dose/g, the “Biodistribution Heart” value (120 min) was 0.22 ± 0.01 % dose/g and the “Biodistribution Hippocampus” value (120 min) was 0.23 ± 0.03 % dose/g. For the same compound, the “Biodistribution Kidney” value (120 min) was 0.55 ± 0.06 % dose/g, the “Biodistribution Liver” value (120 min) was 1.47 ± 0.13 % dose/g and the “Biodistribution Lung” value (120 min) was 0.35 ± 0.03 % dose/g. The “Biodistribution Muscle” value (120 min) was 0.10 ± 0.01 % dose/g, the “Biodistribution Pancreas” value (120 min) was 2.76 ± 0.61 % dose/g and the “Biodistribution Skin” value (120 min) was 0.16 ± 0.02 % dose/g. For the same compound, the “Biodistribution Spleen” value (120 min) was 0.48 ± 0.04 % dose/g and the “Biodistribution Striatum” value (120 min) was 1.42 ± 0.54 % dose/g.
